Measured values as given in the supplement of paper PMC9663587.

How the values were obtained:
YKL-5-124 = compound: C=CC(=O)Nc1ccc(C(=O)Nc2[nH]nc3c2CN(C(=O)N[C@H](CN(C)C)c2ccccc2)C3(C)C)cc1 [YKL-5-124]; experiment: GR value, 72 h; higher = faster growth (1 = untreated, <0 = killing);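 further: breast cancer and non-malignant breast epithelial lines, nine half-log doses, viable cells counted by Hoechst and LIVE/DEAD dye imaging versus time-zero plates and DMSO controls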
THZ531 = compound: CN(C)C/C=C/C(=O)Nc1ccc(C(=O)N2CCC[C@@H](Nc3ncc(Cl)c(-c4c[nH]c5ccccc45)n3)C2)cc1 [THZ531]; experiment: as above
Flavopiridol [1] = compound: T1, CN1CC[C@H](c2c(O)cc(O)c3c(=O)cc(-c4ccccc4Cl)oc23)[C@H](O)C1 [Flavopiridol]; experiment: as above
THZ1 = compound: CN(C)C/C=C/C(=O)Nc1ccc(C(=O)Nc2cccc(Nc3ncc(Cl)c(-c4c[nH]c5ccccc45)n3)c2)cc1 [THZ1]; experiment: as above
BSJ-03-123 [2] = compound: T2, CC(=O)c1c(C)c2cnc(Nc3ccc(N4CCN(CCOCCOCCOCCNC(=O)COc5cccc6c5C(=O)N(C5CCC(=O)NC5=O)C6=O)CC4)cn3)nc2n(C2CCCC2)c1=O [BSJ-03-123]; experiment: as above
[3] = compound: CCN1CCN(Cc2ccc(Nc3ncc(F)c(-c4cc(F)c5nc(C)n(C(C)C)c5c4)n3)nc2)CC1; experiment: as above
[4] = compound: CCc1cnn2c(NCc3ccc[n+]([O-])c3)cc(N3CCCC[C@H]3CCO)nc12; experiment: as above
LEE011/Ribociclib = compound: CN(C)C(=O)c1cc2cnc(Nc3ccc(N4CCNCC4)cn3)nc2n1C1CCCC1 [LEE011/Ribociclib]; experiment: as above
Neratinib/HKI272 = compound: CCOc1cc2ncc(C#N)c(Nc3ccc(OCc4ccccn4)c(Cl)c3)c2cc1NC(=O)/C=C/CN(C)C [Neratinib/HKI272]
[5] = compound: CCC1=CN=CN=C1N2CCN(CC2)CC3=NC4=C(N3)C=C(C=C4)C(F)(F)F
Paclitaxel = compound: CC(=O)O[C@H]1C(=O)[C@@]2(C)[C@H]([C@H](OC(=O)c3ccccc3)[C@]3(O)C[C@H](OC(=O)[C@H](O)[C@@H](NC(=O)c4ccccc4)c4ccccc4)C(C)=C1C3(C)C)[C@]1(OC(C)=O)CO[C@@H]1C[C@@H]2O [Paclitaxel]
[6] = compound: CO[C@@H](C)Cn1c(=O)n(C)c2cnc3ccc(-c4cncc(C(C)(C)O)c4)cc3c21
R0-3306 = compound: C1=CC2=C(C=CC(=C2)C=C3C(=O)NC(=NCC4=CC=CS4)S3)N=C1 [R0-3306]
AZD5363 = compound: NC1(C(=O)N[C@@H](CCO)c2ccc(Cl)cc2)CCN(c2nc[nH]c3nccc2-3)CC1 [AZD5363]
BVD523 = compound: CC(C)Nc1cc(-c2c[nH]c(C(=O)N[C@H](CO)c3cccc(Cl)c3)c2)c(Cl)cn1 [BVD523]
Flavopiridol [7] = compound: T1, Flavopiridol
BSJ-03-123 [8] = compound: T2, BSJ-03-123
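Wherever GR50, 72 h is given: breast cancer and non-malignant breast epithelial cell lines, Deep Dye Drop or Dye Drop imaging, nine half-log doses, GR normalized to time-zero plates and DMSO-only controls.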

## HCC1954
YKL-5-124; 0.001 µM
  GR value: 0.224 GR
YKL-5-124; 0.003162 µM
  GR value: 0.154 GR
YKL-5-124; 0.01 µM
  GR value: 0.0574 GR
YKL-5-124; 0.03162 µM
  GR value: 0.0823 GR
YKL-5-124; 0.1 µM
  GR value: -0.0214 GR
YKL-5-124; 0.3162 µM
  GR value: 0.0013 GR
YKL-5-124; 1 µM
  GR value: -0.0774 GR
YKL-5-124; 3.162 µM
  GR value: -0.0189 GR
YKL-5-124; 10 µM
  GR value: -0.143 GR
THZ531; 0.0001 µM
  GR value: 1.04 GR
THZ531; 0.0003162 µM
  GR value: 1.06 GR
THZ531; 0.001 µM
  GR value: 0.921 GR
THZ531; 0.003162 µM
  GR value: 1.04 GR
THZ531; 0.01 µM
  GR value: 1.07 GR
THZ531; 0.03162 µM
  GR value: 1.05 GR
THZ531; 0.1 µM
  GR value: 0.873 GR
THZ531; 0.3162 µM
  GR value: 0.66 GR
THZ531; 1 µM
  GR value: -0.297 GR
Flavopiridol [1]; 0.0001 µM
  GR value: 1.01 GR
Flavopiridol [1]; 0.0003162 µM
  GR value: 0.967 GR
Flavopiridol [1]; 0.001 µM
  GR value: 0.962 GR
Flavopiridol [1]; 0.003162 µM
  GR value: 0.996 GR
Flavopiridol [1]; 0.01 µM
  GR value: 0.907 GR
Flavopiridol [1]; 0.03162 µM
  GR value: 0.928 GR
Flavopiridol [1]; 0.1 µM
  GR value: 0.613 GR
Flavopiridol [1]; 0.3162 µM
  GR value: 0.0144 GR
Flavopiridol [1]; 1 µM
  GR value: -0.52 GR
THZ1; 0.0001 µM
  GR value: 1.03 GR
THZ1; 0.0003162 µM
  GR value: 0.958 GR
THZ1; 0.001 µM
  GR value: 1.01 GR
THZ1; 0.003162 µM
  GR value: 1 GR
THZ1; 0.01 µM
  GR value: 0.939 GR
THZ1; 0.03162 µM
  GR value: 0.85 GR
THZ1; 0.1 µM
  GR value: 0.491 GR
THZ1; 0.3162 µM
  GR value: -0.0278 GR
THZ1; 1 µM
  GR value: -0.507 GR
BSJ-03-123 [2]; 0.001 µM
  GR value: 0.886 GR
BSJ-03-123 [2]; 0.003162 µM
  GR value: 0.859 GR
BSJ-03-123 [2]; 0.01 µM
  GR value: 0.812 GR
BSJ-03-123 [2]; 0.03162 µM
  GR value: 0.745 GR
BSJ-03-123 [2]; 0.1 µM
  GR value: 0.689 GR
BSJ-03-123 [2]; 0.3162 µM
  GR value: 0.746 GR
BSJ-03-123 [2]; 1 µM
  GR value: 0.558 GR
BSJ-03-123 [2]; 3.162 µM
  GR value: 0.473 GR
BSJ-03-123 [2]; 10 µM
  GR value: -0.0177 GR
[3]; 0.001 µM
  GR value: 1.01 GR
[3]; 0.003162 µM
  GR value: 0.941 GR
[3]; 0.01 µM
  GR value: 0.844 GR
[3]; 0.03162 µM
  GR value: 0.698 GR
[3]; 0.1 µM
  GR value: 0.584 GR
[3]; 0.3162 µM
  GR value: 0.503 GR
[3]; 1 µM
  GR value: 0.36 GR
[3]; 3.162 µM
  GR value: 0.193 GR
[3]; 10 µM
  GR value: -0.5 GR
[4]; 0.0001 µM
  GR value: 0.941 GR
[4]; 0.0003162 µM
  GR value: 1.04 GR
[4]; 0.001 µM
  GR value: 1.05 GR
[4]; 0.003162 µM
  GR value: 1.12 GR
[4]; 0.01 µM
  GR value: 0.69 GR
[4]; 0.03162 µM
  GR value: -0.352 GR
[4]; 0.1 µM
  GR value: -0.474 GR
[4]; 0.3162 µM
  GR value: -0.472 GR
[4]; 1 µM
  GR value: -0.441 GR
LEE011/Ribociclib; 0.001 µM
  GR value: 0.804 GR
LEE011/Ribociclib; 0.003162 µM
  GR value: 0.771 GR
LEE011/Ribociclib; 0.01 µM
  GR value: 0.811 GR
LEE011/Ribociclib; 0.03162 µM
  GR value: 0.771 GR
LEE011/Ribociclib; 0.1 µM
  GR value: 0.655 GR
LEE011/Ribociclib; 0.3162 µM
  GR value: 0.609 GR
LEE011/Ribociclib; 1 µM
  GR value: 0.654 GR
LEE011/Ribociclib; 3.162 µM
  GR value: 0.687 GR
LEE011/Ribociclib; 10 µM
  GR value: 0.539 GR
Neratinib/HKI272
  GR50, 72 h: 0.0672 µM
[5]
  GR50, 72 h: > 10 µM
Paclitaxel
  GR50, 72 h: 0.0025 µM
[6]
  GR50, 72 h: < 0.001 µM
R0-3306
  GR50, 72 h: 6.63 µM
AZD5363
  GR50, 72 h: 3.06 µM
BVD523
  GR50, 72 h: 2.94 µM
Flavopiridol [7]
  GR50, 72 h: 0.128 µM
BSJ-03-123 [8]
  GR50, 72 h: 1.07 µM
